For one data set, the target named is T1, Tau2P (Homo sapiens, UniProt P10636).
T1 construct: made in house; host or cells: chemical solid-phase synthesis
The data set is described as follows: Fluorescence titration of BODIPY-Zn(Dpa) with Tau2P. The settings on record: Tau 2P (i, i+4). The class given is binding. The method, then: (§1) The phosphorylated peptide-recognizing ability of BODIPY-Zn(Dpa) compound 9 (hereinafter referred to as BODIPY-Zn(Dpa)) was evaluated by measuring fluorescence spectra. Measurement was performed under the following conditions: [BODIPY-Zn(Dpa)]=5 μM; pH 7.2; 50 mM HEPES buffer; and 25° C. The excitation wavelength was λex=530 nm. […] When Tau2P was excessively added, this change reached saturation. The […] calculated from the fluorescence changes was 2.75×10^5 M^−1.

For another data set, the target named is T2, Tau1P (Homo sapiens, UniProt P10636).
T2 construct: made in house; host or cells: chemical solid-phase synthesis
The experiment in a line: Fluorescence titration of BODIPY-Zn(Dpa) with Tau1P. The class given is binding. The method, then:
as §1

Data set [1] is described as follows: Delivery of BODIPY-Zn(Dpa) into brain after intravenous administration. The following applies: i.v. 1 mg/kg; for percent of the dose per gram of the mouse brain: rounded; for content in the brain / content in the brain based on the dose: mouse. The class given is in vivo, ICR mouse. The method, then: BODIPY-Zn(Dpa) was intravenously administered to an ICR mouse (male, 7 weeks old) to measure the delivery thereof into the brain in vivo. Specifically, BODIPY-Zn(Dpa) (400 μL of 50 μM HBS solution) was injected from the caudal vein at a dose of 1 mg/kg, and the brain was collected at 2 or 30 min after administration. The collected brain (424 to 488 mg) was homogenized in 3 mL of an HBS solution using a spatula and homogenized by ultrasonic irradiation. BODIPY-Zn(Dpa) contained in the brain was quantified by reverse-phase HPLC to obtain the content of BODIPY-Zn(Dpa) in the brain based on the dose (% ID/g: % injected dose per gram of the brain). Fluorescence from the compound (excitation, 520 nm; fluorescence, 545 nm) was utilized for detection by HPLC.

The test system of data set [2] is phosphorylated tau protein. The experiment in a line: Fluorescence staining of AD-affected human brain hippocampal tissue sections, costaining with tau antibodies. The following applies: 10 μM probe. Here is the method: (§2) To investigate whether an excessively phosphorylated tau protein in brain tissues can be detected, a fluorescence staining experiment of hippocampal tissue sections from a human brain affected by Alzheimer (AD) and a normal brain was performed using BODIPY-Zn(Dpa). Specifically, hippocampal tissue sections from the AD-affected human brain or the normal brain were deparaffinized (xylene immersion for 5 min was repeated three times, then each section was immersed in 100%, 90%, 80% and 70% aqueous ethanol solution in stages [for 2 min each], and finally washed twice with water for 5 min), lipofuscin was removed (washed twice with PBS for 2 min, immersed in 0.25% by weight permanganate potassium/PBS for 30 min, washed twice with PBS for 2 min, immersed in 1% by weight oxalic acid and 1% by weight potassium pyrosulfate/PBS for 6 min and finally washed twice with PBS for 2 min), trypsin treatment was performed (washed twice with PBS-Tween at room temperature for 2 min and 0.05% Trypsin/PBS at 37° C. for 15 min), and finally washed twice with PBS-Tween at room temperature for 5 min, and costaining was performed using an antibody and BODIPY-Zn(Dpa). First, blocking was performed with 10% goat serum (37° C., 30 min) to remove 10% goat serum, then a primary antibody was added, and a reaction was performed at 4° C. for 17 to 19 h. […]

The target of data set [3] is T3, tau aggregate (Homo sapiens, UniProt P10636).
T3 construct: made in house; host or cells: Escherichia coli
The data set is described as follows: Fluorescence titration of tau aggregate against 100 nM BODIPY-Zn(Dpa). The following applies: tau 0 to 320 nM against 100 nM BODIPY-Zn(Dpa), 37° C., 60 min. The class given is binding. The method, then:
The ranges of concentrations at which a phosphorylated tau aggregate, a tau aggregate, and an amyloid β aggregate interact with BODIPY-Zn(Dpa) were examined by titration. Titration was performed in the range of tau concentrations of 0 to 320 nM (0 to 14 μg/mL) against 100 nM of BODIPY-Zn(Dpa). Using a solvent obtained by adding 10% DMSO and 10 μM Zn(NO3)2 to HBS (10 mM HEPES (pH 7.4), 150 mM NaCl), the solution was incubated at 37° C. for 60 min, and fluorescence was measured (excitation wavelength, 490 nm; fluorescence wavelength, 545 nm).

Data set [4] has as its target T3, tau aggregate. The experiment in a line: Fluorescence titration of BODIPY-Zn(Dpa) against tau aggregate (EC50). The class given is binding. The settings on record: aggregate 1 μg/mL, 37° C., 30 min. Here is the method: (§3) BODIPY-Zn(Dpa) was titrated against a phosphorylated tau aggregate, a tau aggregate, and an amyloid β aggregate to obtain EC50 (a probe concentration at which a half value of the maximum change (ΔFmax) in fluorescence intensity is observed). BODIPY-Zn(Dpa) was titrated against an aggregate at a predetermined concentration (1 μg/mL), and changes in fluorescence intensity at each concentration (ΔF) were plotted. Using a solvent obtained by adding 10% DMSO and 100 μM Zn(NO3)2 to HBS (10 mM HEPES (pH 7.4), 150 mM NaCl), the solution was incubated at 37° C. for 30 min, and fluorescence was measured (excitation wavelength, 490 nm; fluorescence wavelength, 545 nm).

In data set [5] the target is T4, phosphorylated tau aggregate (Homo sapiens, UniProt P10636).
T4 construct: made in house; host or cells: Escherichia coli
The data set is described as follows: Fluorescence titration of BODIPY-Zn(Dpa) against phosphorylated tau aggregate (EC50). The class given is binding. The method, then: as §3

In the next data set the target is T5, Tau204-2163P (Homo sapiens, UniProt P10636).
T5 construct: made in house; host or cells: chemical solid-phase synthesis
The experiment in a line: Fluorescence titration of BODIPY-Zn(Dpa) with Tau204-2163P. The class given is binding. Here is the method: as §1
Fluorescence changes when peptide Tau204-2163P or Tau204-2162P used in Example 1 was added dropwise were measured to calculate the affinity (association constant).

In another data set the test system is amyloid beta protein. The data set is described as follows: Fluorescence staining of AD-affected human brain hippocampal tissue sections, costaining with anti-Aβ antibody. The settings on record: 10 μM probe. Here is the method: as §2

SMILES strings stand for the structures. Entries after “also recorded” stand apart in the source; their conditions may differ.

T4 sequence (P10636 1-441 isoform P10636-8): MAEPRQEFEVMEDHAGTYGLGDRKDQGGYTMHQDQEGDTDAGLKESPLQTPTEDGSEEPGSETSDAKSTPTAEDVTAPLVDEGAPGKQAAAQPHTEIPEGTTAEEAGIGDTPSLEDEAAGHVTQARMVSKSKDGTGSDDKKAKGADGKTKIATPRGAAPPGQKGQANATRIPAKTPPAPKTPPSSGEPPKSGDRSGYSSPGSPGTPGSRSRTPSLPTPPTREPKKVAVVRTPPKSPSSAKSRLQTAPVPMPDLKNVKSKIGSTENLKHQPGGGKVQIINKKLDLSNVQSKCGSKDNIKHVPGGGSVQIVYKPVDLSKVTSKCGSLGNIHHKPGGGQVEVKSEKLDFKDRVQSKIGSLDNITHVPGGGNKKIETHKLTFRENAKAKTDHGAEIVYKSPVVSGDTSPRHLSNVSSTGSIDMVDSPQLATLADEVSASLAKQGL
T3 sequence (P10636 1-441 isoform P10636-8): as above

As for `CC1=C(c2ccc(CN(C)Cc3ccccn3)nc2)C(C)=[N+]2C1=C(c1cc(OCCOCCOCCO)cc(OCCOCCOCCO)c1)c1c(C)c(-c3ccc(CN(C)Cc4ccccn4)nc3)c(C)n1[B-]2(F)F.O=[N+]([O-])[O-].O=[N+]([O-])[O-].O=[N+]([O-])[O-].O=[N+]([O-])[O-].[Zn+2].[Zn+2]` [BODIPY-Zn(Dpa)], the “I/I0 - 1 at saturation” value is 0.55 at Tau2P (BODIPY-Zn(Dpa) 5 μM, pH 7.2, 25° C.); “No change” at Tau1P (Tau 1P); 0.25 on Tau204-2163P (Tau204-216 3P (i, i+4, i+6)). Besides, the Association constant at Tau2P (calculated from fluorescence changes) is 275000 M⁻¹; on Tau204-2163P (Tau204-216 3P (i, i+4, i+6)) it was 230000 M⁻¹. In addition, the “fluorescence intensity change on addition of peptide” value on Tau1P (Tau1P, monophosphorylated) is listed as “no major change was observed; also recorded: does not change”. Besides, the “percent of the dose per gram of the mouse brain” value in [1] (2 min after administration) is given as 0.5%; in [1] (30 min after administration) it was 0.02%. Further, the “content in the brain” value turned out to be 99.3 pmol/g brain in [1] (2 min after administration) and 3.96 pmol/g brain in data set [1] (30 min after administration). In addition, the figures for the “content in the brain based on the dose” value in data set [1] (2 min after administration) and in data set [1] (30 min after administration) were 0.496 % ID/g and 0.020 % ID/g, respectively. In addition, the “coexistence of fluorescence with Tau-2 and AT8 antibody staining” value in [2] was “coexisted”. On tau aggregate [3], the “concentration range of interaction” value was “in the range of nM”. Also, the EC50 (in general, the concentration at which the effect is half-maximal) at tau aggregate [4] amounted to 80 nM; in data set [5] (aggregate 1 μg/mL, 37° C., 30 min), 9.1 nM. In addition, the “affinity (EC50) for phosphorylated tau aggregate relative to amyloid β aggregate” value in data set [5] (higher than for the amyloid β aggregate) was determined as 70 times. Further, the “affinity (EC50) for phosphorylated tau aggregate relative to tau aggregate” value in [5] (higher than for the tau aggregate) turned out to be 9 times. Further, the “detection of peptide by fluorescence change” value on Tau204-2163P (Tau204-2163P) is listed as “could be detected”. Besides, the “coexistence of fluorescence with Aβ42 (anti-Aβ antibody) staining” value in the data set on amyloid beta protein was “did not coexist”.

Source of the values: US8093060B2, “Multisite phosphorylated peptide (protein) recognizing compound and detection method, imaging method, alzheimer's disease diagnosing method and reagent kit using the same” (Canon Kabushiki Kaisha, priority 2008, dated 2012).
